A word on the IC50: it is the concentration at which inhibition is half-maximal.

This experiment concerns the target Neuraminidase (Influenza A virus (A/Puerto Rico/8/1934(H1N1)), UniProt P03468). The experiment is described as follows: Inhibition of neuraminidase in Influenza A. Format: functional.

Neuraminidase (Influenza A virus (A/Puerto Rico/8/1934(H1N1)), UniProt P03468), sequence (P03468 whole entry): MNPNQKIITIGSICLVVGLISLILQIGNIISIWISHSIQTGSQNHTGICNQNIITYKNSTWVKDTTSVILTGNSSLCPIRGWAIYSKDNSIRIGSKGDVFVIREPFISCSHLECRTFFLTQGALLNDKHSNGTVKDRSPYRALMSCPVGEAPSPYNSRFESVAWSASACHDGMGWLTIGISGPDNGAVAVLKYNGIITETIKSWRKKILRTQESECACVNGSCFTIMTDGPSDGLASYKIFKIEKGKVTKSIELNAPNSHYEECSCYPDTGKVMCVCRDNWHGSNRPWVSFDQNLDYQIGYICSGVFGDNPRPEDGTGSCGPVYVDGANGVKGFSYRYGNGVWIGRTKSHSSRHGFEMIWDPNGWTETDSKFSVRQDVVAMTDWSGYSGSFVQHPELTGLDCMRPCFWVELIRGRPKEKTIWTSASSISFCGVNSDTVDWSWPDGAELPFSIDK

Turning to `CC(=O)N[C@H]1[C@H](N2CCC2)C=C(C(=O)O)C[C@@H]1N`, half-maximal inhibition (IC50) required 1000 nM.

Regarding `CC(=O)N[C@H]1[C@H](N2CCCCCCC2)C=C(C(=O)O)C[C@@H]1N`, half-maximal inhibition (IC50) required 26 nM.

The compound `CCC1(CC)CN([C@@H]2C=C(C(=O)O)C[C@H](N)[C@H]2NC(C)=O)C1` yielded an IC50 of 265 nM.

Compound `CC(=O)N[C@H]1[C@H](N2CCCCCC2)C=C(C(=O)O)C[C@@H]1N` registered an IC50 of 35 nM.

`CC(=O)N[C@H]1[C@H](N2CCN(C)CC2)C=C(C(=O)O)C[C@@H]1N` gave an IC50 of 1900 nM.

On to `CC(=O)N[C@H]1[C@H](N2CCCC2)C=C(C(=O)O)C[C@@H]1N`, for which the IC50 was determined as 310 nM.

On to `CC(=O)N[C@H]1[C@H](N2CCCCC2)C=C(C(=O)O)C[C@@H]1N`, for which 25 nM corresponded to half-maximal inhibition (IC50).

On to `CC(=O)N[C@H]1[C@H](N2CCCCCCCC2)C=C(C(=O)O)C[C@@H]1N`, for which the IC50 came to 75 nM.

As for `CC(=O)N[C@H]1[C@H](N2C3CCCC2CC3)C=C(C(=O)O)C[C@@H]1N`, half-maximal inhibition (IC50) required 32 nM.

`CCCC1CCN([C@@H]2C=C(C(=O)O)C[C@H](N)[C@H]2NC(C)=O)CC1` had an IC50 of 40 nM.

In the case of `CC(=O)N[C@H]1[C@H](N2CCC(C)CC2)C=C(C(=O)O)C[C@@H]1N`, inhibition was half-maximal at 51 nM (IC50).

Take `CC(=O)N[C@H]1[C@H](N2CCOCC2)C=C(C(=O)O)C[C@@H]1N`: the IC50 was 260 nM.

The compound `CC(=O)N[C@H]1[C@H](N2CCCCC[C@@H]2CO)C=C(C(=O)O)C[C@@H]1N` displayed an IC50 of 8 nM.

`CCC1CCN([C@@H]2C=C(C(=O)O)C[C@H](N)[C@H]2NC(C)=O)CC1` came in with an IC50 of 52 nM.
